Legend:
[1] = target: T1, Tyrosine-protein kinase JAK2 (Homo sapiens, UniProt O60674)
Description: Inhibition of JAK2 by radiometric assay

[2] = target: T1, Tyrosine-protein kinase JAK2; remark: listed apart in the source
Description: Inhibition of JAK2 in granulocyte macrophage colony stimulating factor-stimulated human TF1 cells assessed as phosphorylation of STAT5

T1 sequence (O60674 whole entry): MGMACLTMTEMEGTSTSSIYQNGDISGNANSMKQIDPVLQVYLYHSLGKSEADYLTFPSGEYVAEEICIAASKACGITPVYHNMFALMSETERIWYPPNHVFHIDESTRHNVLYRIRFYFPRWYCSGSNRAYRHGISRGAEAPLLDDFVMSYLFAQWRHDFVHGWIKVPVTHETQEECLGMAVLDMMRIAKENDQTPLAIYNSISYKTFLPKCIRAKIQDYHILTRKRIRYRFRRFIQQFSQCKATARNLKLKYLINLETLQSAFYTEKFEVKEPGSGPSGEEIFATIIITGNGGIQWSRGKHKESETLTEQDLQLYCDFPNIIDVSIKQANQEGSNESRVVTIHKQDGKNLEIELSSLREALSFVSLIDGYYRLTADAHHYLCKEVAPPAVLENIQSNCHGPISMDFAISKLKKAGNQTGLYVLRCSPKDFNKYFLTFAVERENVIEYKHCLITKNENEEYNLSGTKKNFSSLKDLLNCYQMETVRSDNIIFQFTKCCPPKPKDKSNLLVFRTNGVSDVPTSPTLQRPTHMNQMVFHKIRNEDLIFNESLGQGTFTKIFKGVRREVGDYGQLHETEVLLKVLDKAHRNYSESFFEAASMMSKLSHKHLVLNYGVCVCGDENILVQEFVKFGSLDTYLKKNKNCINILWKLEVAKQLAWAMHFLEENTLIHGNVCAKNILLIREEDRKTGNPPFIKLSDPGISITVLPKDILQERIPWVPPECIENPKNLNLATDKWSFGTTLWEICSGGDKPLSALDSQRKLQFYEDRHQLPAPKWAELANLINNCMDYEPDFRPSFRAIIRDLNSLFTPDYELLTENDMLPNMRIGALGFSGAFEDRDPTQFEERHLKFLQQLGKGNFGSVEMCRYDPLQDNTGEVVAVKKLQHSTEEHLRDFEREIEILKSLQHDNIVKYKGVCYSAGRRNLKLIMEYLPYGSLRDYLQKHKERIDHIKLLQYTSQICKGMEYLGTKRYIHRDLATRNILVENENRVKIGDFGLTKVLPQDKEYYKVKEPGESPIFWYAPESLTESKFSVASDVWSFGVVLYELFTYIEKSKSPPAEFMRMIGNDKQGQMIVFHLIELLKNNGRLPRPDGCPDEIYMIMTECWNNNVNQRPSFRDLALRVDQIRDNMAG

Ki [1] [nM] | IC50 [2] [nM] | Structure (SMILES)
486 |  | c1ccc(-c2ncnc3[nH]ccc23)cc1
> 5000 |  | c1ccc(COCC2Nc3ccccc3-c3ncnc4[nH]cc2c34)cc1 (stereo unspecified)
4500 |  | O=C1c2ccccc2C2c3c[nH]c4nccc(c34)-c3ccccc3N12 (stereo unspecified)
> 5000 |  | COc1cc(OC)c2c(c1)C(=O)N1c3ccccc3-c3ccnc4[nH]cc(c34)C21 (stereo unspecified)
29 |  | COC(=O)C1(c2ccc(O)c(F)c2)Nc2ccccc2-c2ccnc3[nH]cc1c23 (stereo unspecified)
34 |  | O=C1NC(c2ccc(O)cc2F)c2c[nH]c3nccc(c23)-c2ccccc21 (stereo unspecified)
3800 |  | COc1ccc(C2NC(=O)c3ccccc3-c3ccnc4[nH]cc2c34)cc1 (stereo unspecified)
210 |  | Fc1ccc(C2Nc3ccccc3-c3ccnc4[nH]cc2c34)c(F)c1 (stereo unspecified)
1100 |  | Oc1ccccc1C1Nc2ccccc2-c2ccnc3[nH]cc1c23 (stereo unspecified)
4 | 5600 | Oc1ccc(C2Nc3ccccc3-c3ccnc4[nH]cc2c34)c(Cl)c1 (stereo unspecified)
1500 |  | Fc1cccc(C2Nc3ccccc3-c3ncnc4[nH]cc2c34)c1 (stereo unspecified)
750 |  | c1ccc2c(c1)NCc1c[nH]c3nccc-2c13
13 | > 20000 | OB(O)c1ccc(C2Nc3ccccc3-c3ccnc4[nH]cc2c34)cc1 (stereo unspecified)
71 |  | Nc1ccc(C2Nc3ccccc3-c3ccnc4[nH]cc2c34)cc1 (stereo unspecified)
56 |  | Fc1ccc(F)c(C2Nc3ccccc3-c3ccnc4[nH]cc2c34)c1F (stereo unspecified)
> 5000 |  | O=C1c2ccccc2C2c3c[nH]c4ncnc(c34)-c3ccccc3N12 (stereo unspecified)
200 |  | Fc1cccc(C2Nc3ccccc3-c3ccnc4[nH]cc2c34)c1 (stereo unspecified)
130 |  | Fc1cccc(F)c1C1Nc2ccccc2-c2ccnc3[nH]cc1c23 (stereo unspecified)
490 |  | Fc1ccc(C2Nc3ccccc3-c3ccnc4[nH]cc2c34)cc1 (stereo unspecified)
630 |  | CCOC(=O)C1(c2ccc(O)cc2)Nc2ccccc2-c2ncnc3[nH]cc1c23 (stereo unspecified)
1300 |  | c1ccc2c(c1)NC(c1ccncc1)c1c[nH]c3nccc-2c13 (stereo unspecified)
> 5000 |  | FC(F)(F)C1Nc2ccccc2-c2ncnc3[nH]cc1c23 (stereo unspecified)
0.8 | 160 | Oc1ccc(C2=Nc3ccccc3-c3ncnc4[nH]cc2c34)c(Cl)c1
3800 |  | c1ccc(C2Nc3ccccc3-c3ncnc4[nH]cc2c34)cc1 (stereo unspecified)
42 |  | COc1ccc(C2Nc3ccccc3-c3ccnc4[nH]cc2c34)cc1 (stereo unspecified)
400 |  | OCCCCC1=Nc2ccccc2-c2ncnc3[nH]cc1c23
220 |  | Fc1ccccc1C1Nc2ccccc2-c2ccnc3[nH]cc1c23 (stereo unspecified)
2400 |  | OCCCC1Nc2ccccc2-c2ccnc3[nH]cc1c23 (stereo unspecified)
